{"source": "patent US20100173983A1", "about": "“METHOD FOR INDUCING AUTOPHAGY” (priority 2007, published 2010)", "type_in_all_cases": "cell-based, Human", "key": {"[1]": {"system": "ovarian cancer cells", "test": "Cell viability in presence of pan caspase inhibitor ZVAD-FMK", "conditions": "ZVAD-FMK 0.5 μg/ml", "protocol": "FIG. 5. Comparative cell viability plots of dehydroequol (A) and Cpd 1 (B) treated cells in the presence and absence of the pan caspase inhibitor ZVAD-FMK (0.5 μg/ml).\n(§1) Cell viability was evaluated using the CellTiter 96 Aqueous One Solution Cell Proliferation Assay (Promega, Madison, Wis.) according to the manufacturer's instructions. The values from the treated cells were compared with the values generated from the untreated cells and reported as percent viability. Each experiment was performed in triplicate."}, "[2]": {"system": "OSE (normal ovarian surface epithelial cells)", "test": "Cell viability, CellTiter 96 assay, normal cells", "conditions": "concentrations up to 10 μg/ml, 24 hr exposure", "protocol": "FIG. 1. Comparative cytotoxicity of dehydroequol and Compound I as described herein (Cpd 1) against normal and ovarian cancer cells: CP70 (cell line), R179, R182, R585 (primary ovarian cancer explants) and OSE (normal ovarian surface epithelial cells). […] Both compounds were tested at concentrations up to 10 μg/ml and exposed to cells for 24 hr.\nHuman EOC cell lines A2780, CP70, and OSE were propagated in RPMI plus 10% fetal bovine serum (FBS) (Gemini Bio-Products, Woodland, Calif.) at 37° C. in a 5% CO2 atmosphere. Primary EOC cells (R179, R182, R585) were isolated from malignant ovarian ascites and cultured as previously described (Kamsteeg et al., 2003). Dehydroequol and Compound 1 (Cpd 1) were obtained from Novogen (Australia). All other reagents were purchased from Sigma Chemical (St. Louis, Mo.). The pan caspase inhibitor Z-VAD-FMK was obtained from R&D Systems (Minneapolis, Minn.).\nas §1"}, "[3]": {"system": "caspase 3", "test": "Caspase-Glo 3/7 assay in R182 cells", "conditions": "R182 ovarian cancer explants; dose response and duration of exposure (5 μg/ml, 0-25 hr)", "protocol": "FIG. 2. Comparative induction of caspase 3 in R182 ovarian cancer explants by Cpd 1 and dehydroequol using either dose response (A) or duration of exposure (B). Caspase 3 activity was assessed using the Caspase-Glo 3/7 assays.\nFor caspase activity assays, 10 μg of protein in 50 μL total volume was mixed with 50 μL of equilibrated Caspase-Glo 3/7, 8, or 9 reagents (Promega). After incubating at room temperature for 1 hour, luminescence was measured using TD 20/20 Luminometer (Turner Designs, Sunnyvale, Calif.). Blank values were subtracted and fold-increase in activity was calculated based on activity measured from untreated cells. Each sample was measured in triplicate."}, "[4]": {"system": "Akt", "test": "Western blot of R-182 lysates, Akt", "conditions": "R-182 cells, 5 μg/ml", "text": "FIG. 10. The expression of upstream regulators of autophagy are also modulated in response to Cpd 1. […] B-actin was included as a loading control. B, Proposed mechanism of Cpd 1 induced autophagic cell death.\nAfter treatment with Cpd 1, protein was extracted from cells and measured as previously described (Kamsteeg et al., 2003). For separation of the cytoplasmic and mitochondrial fractions, cell pellets were processed using the ApoAlert Cell Fractionation kit (Promega) according to the manufacturer's instructions. 20 μg protein was denatured in sample buffer (2.5% sodium dodecyl sulfate [SDS], 10% glycerol, 5% β-mercapto-ethanol, 0.15 M Tris, pH 6.8, and 0.01% bromophenol blue) and subjected to 12% SDS polyacrylamide gel electrophoresis (SDS-PAGE) as previously described (Kamsteeg et al., 2003). The following antibodies and concentrations were used: mouse anti-Bax (BD Biosciences, 1:500), rabbit anti-actin (Sigma, 1:10,000), rabbit anti-cytochrome c (BD Biosciences, 1:1,000), mouse anti-Cox-4 (BD Biosciences, 1:500), rabbit anti-beclin 1 (Santa Cruz Biotechnology, 1:600), mouse anti LC3 (Nanotools, 1:500). […] Proteins were observed using enhanced chemiluminescence (Pierce, Rockford, Ill.)."}, "[5]": {"system": "CP70 ovarian cancer cells", "test": "DNA fragmentation, PI/Hoechst FACS analysis", "conditions": "10 μM for 24 hr; 1.4% in the absence of Cpd 1", "protocol": "FIG. 7. Cpd 1 induces DNA degradation in CP70 cells. A, No treatment control. B, Cpd 1-treated cells. CP70 ovarian cancer cells were incubated with 10 μg/ml Cpd 1 for […] and fixed. Cells were co-stained with propidium iodide and Hoechst A and incidence of PI labelled cells indicative of DNA degradation in quandrant 2 was assessed by FACS analysis.\nThe inventors then determined whether treatment with Cpd 1 induced DNA fragmentation. Ovarian cancer cells were treated with Cpd 1 (10 μM) for 24 hr and gently trypsinised. Trypsinized cells were combined with non-adherent cells, rinsed once in medium containing serum and then resuspended at a concentration of 10^7 cells/ml in PBS. Cells were then fixed by adding 0.5 ml of cell suspension to 4.5 ml 70% ice-cold ethanol. After 2 h on ice, cells were pelleted and the ethanol was thoroughly decanted. The cell pellet was rinsed in 5 ml PBS, centrifuged, resuspended in 1 ml of PBS containing 0.1% Triton X-100, 0.2 mg/ml DNase-free RNase A, and 20 μg/ml propidium iodide (PI) and 2 μg/ml hoechst-A and incubated at 37° C. for 15 min before FACS analysis. Cells were analyzed using Becton Dickinson Cell Quest FACStation software (version 3.0.1) operating a Becton Dickinson FACSCalibur FACS machine. Gating was used to remove debris and doublets before collection. Results were quantitated using ModFit LT (1999; Topsham, Me.: Verity Software House, Inc.). […]"}}}
{"smiles": "COc1ccc([C@H]2c3ccc(O)c(C)c3OC[C@H]2c2ccc(O)cc2)cc1", "note": "(stereo in doubt) [Cpd 1, 3-(4-hydroxyphenyl)-4-(4-methoxyphenyl)-8-methylchroman-7-ol]", "values": [{"measurement": "cell death in the presence of pan caspase inhibitor ZVAD-FMK", "setting": "[1]", "value": "cell death proceeded"}, {"measurement": "toxicity against normal OSE cells", "setting": "[2]", "value": "some toxicity"}, {"measurement": "caspase 3 activity", "setting": "[3]", "value": "did not induce caspase 3 activity"}, {"measurement": "Akt phosphorylation (p-Akt)", "setting": "[4]", "value": "reduced up to 120 minutes post exposure"}, {"measurement": "total Akt (t-Akt) expression", "setting": "[4]", "value": "remained unchanged"}, {"measurement": "DNA fragmentation", "setting": "[5]", "value": 95, "unit": "%"}]}
